Experimental data as given in PubChem BioAssay (NCI).
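Five concentrations, 48 hours, 96-well plates. Here, GI50 denotes the concentration required for 50% inhibition of growth. TGI is the concentration that stops growth completely.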

How the values were obtained:
Assay in all cases: NCI tumour cell line growth inhibition, 48 h; in the data active means GI50 below about 0.43 µM; inactive means the rest
[1] = test system: HS 578T breast
[2] = test system: SF-295 CNS
[3] = test system: MDA-MB-231 breast
[4] = test system: OVCAR-3 ovarian
[5] = test system: NCI-H23 lung
[6] = test system: NCI-H460 lung
[7] = test system: SN12C renal
[8] = test system: DU-145 prostate
[9] = test system: HOP-92 NSCLC
[10] = test system: T-47D breast
[11] = test system: MOLT-4 leukemia
[12] = test system: COLO 205 colon
[13] = test system: 786-0 renal
[14] = test system: SR leukemia
[15] = test system: KM12 colon
[16] = test system: TK-10 renal
[17] = test system: SF-268 CNS
[18] = test system: SK-MEL-28 melanoma
[19] = test system: A549 NSCLC
[20] = test system: A498 renal
[21] = test system: CAKI-1 renal
[22] = test system: K-562 leukemia
[23] = test system: NCI/ADR-RES ovarian
[24] = test system: MCF7 breast
[25] = test system: PC-3 prostate
[26] = test system: SW-620 colon
[27] = test system: RPMI-8226 leukemia
[28] = test system: HCT-15 colon
[29] = test system: HT29 colon
[30] = test system: MALME-3M melanoma
[31] = test system: HCC-2998 colon
[32] = test system: SNB-19 CNS
[33] = test system: NCI-H226 lung
[34] = test system: OVCAR-5 ovarian
[35] = test system: SK-MEL-2 melanoma
[36] = test system: UACC-62 melanoma
[37] = test system: OVCAR-4 ovarian
[38] = test system: MDA-MB-435
[39] = test system: SK-MEL-5 melanoma
[40] = test system: LOX IMVI melanoma
[41] = test system: ACHN renal
[42] = test system: SK-OV-3 ovarian
[43] = test system: RXF 393 renal
[44] = test system: SNB-75 CNS
[45] = test system: M14 melanoma
[46] = test system: SF-539 CNS
[47] = test system: CCRF-CEM leukemia
[48] = test system: BT-549 breast
[49] = test system: HCT-116 colon
[50] = test system: NCI-H522 lung
[51] = test system: HOP-62 NSCLC
[52] = test system: OVCAR-8 ovarian
[53] = test system: U251 CNS
[54] = test system: IGROV1 ovarian
[55] = test system: UACC-257 melanoma
[56] = test system: UO-31 renal
[57] = test system: HL-60(TB) leukemia

COc1ccc2ccc3oc([N+](=O)[O-])cc3c2c1
1.1 µM: TGI [13]
0.894 µM: TGI [42]
2.22 µM: TGI [23]
active: GI50 [1] 0.297 µM | GI50 [2] 0.251 µM | GI50 [3] 0.208 µM | GI50 [4] 0.255 µM | GI50 [5] 0.198 µM | GI50 [6] 0.114 µM | GI50 [7] 0.311 µM | GI50 [8] 0.123 µM | GI50 [9] 0.155 µM | GI50 [11] 0.0745 µM | GI50 [12] 0.157 µM | GI50 [13] 0.316 µM | GI50 [14] 0.0827 µM | GI50 [15] 0.417 µM | GI50 [17] 0.201 µM | GI50 [18] 0.202 µM | GI50 [19] 0.197 µM | GI50 [20] 0.126 µM | GI50 [21] 0.186 µM | GI50 [22] 0.259 µM | GI50 [23] 0.251 µM | GI50 [24] 0.226 µM | GI50 [26] 0.236 µM | GI50 [27] 0.333 µM | GI50 [28] 0.218 µM | GI50 [29] 0.202 µM | GI50 [30] 0.187 µM | GI50 [31] 0.171 µM | GI50 [32] 0.281 µM | GI50 [33] 0.296 µM | GI50 [34] 0.386 µM | GI50 [35] 0.242 µM | GI50 [36] 0.157 µM | GI50 [38] 0.116 µM | GI50 [39] 0.104 µM | GI50 [40] 0.0557 µM | GI50 [41] 0.0402 µM | GI50 [42] 0.206 µM | GI50 [43] 0.141 µM | GI50 [44] 0.166 µM | GI50 [45] 0.115 µM | GI50 [46] 0.275 µM | GI50 [47] 0.193 µM | GI50 [48] 0.194 µM | GI50 [49] 0.189 µM | GI50 [50] 0.169 µM | GI50 [52] 0.216 µM | GI50 [53] 0.277 µM | GI50 [54] 0.246 µM
7.68 µM: TGI [34]
0.543 µM: TGI [19]
0.563 µM: TGI [50]
1.21 µM: TGI [49]
11.7 µM: TGI [14]
0.405 µM: TGI [6]
0.509 µM: TGI [35]
0.316 µM: TGI [43]
0.416 µM: TGI [31]
0.514 µM: TGI [21]
5.41 µM: TGI [37]
5.92 µM: TGI [27]
1.69 µM: TGI [17]
7.9 µM: TGI [25]
0.506 µM: TGI [9]
1.27 µM: TGI [28]
0.393 µM: TGI [30]
0.301 µM: TGI [20]
0.877 µM: TGI [54]
5.37 µM: TGI [53]
3.22 µM: TGI [2] | TGI [33]
1.07 µM: TGI [46]
0.606 µM: TGI [48]
0.572 µM: TGI [5]
0.247 µM: TGI [38]
2.14 µM: TGI [8] | TGI [26]
0.527 µM: TGI [44]
0.307 µM: TGI [45]
2.09 µM: TGI [15]
6.34 µM: TGI [51]
0.54 µM: TGI [18]
1.89 µM: TGI [29]
0.432 µM: TGI [12]
6.52 µM: TGI [16]
5.32 µM: TGI [7]
> 100 µM: TGI [10] | TGI [11] | TGI [22] | TGI [32]
0.355 µM: TGI [36] | TGI [40]
0.754 µM: TGI [4]
1.44 µM: TGI [1] | TGI [41]
0.228 µM: TGI [39]
10.6 µM: TGI [47]
3.27 µM: TGI [52]
2.34 µM: TGI [24]
0.723 µM: TGI [3]
inactive: GI50 [10] 1.83 µM | GI50 [16] 0.56 µM | GI50 [25] 1.08 µM | GI50 [37] 0.828 µM | GI50 [51] 1.03 µM

Nc1c(C(=O)Nc2cccc(Cl)c2Cl)sc2nc3c(cc12)C(=O)CCC3
> 100 µM: TGI [1] | TGI [2] | TGI [3] | TGI [4] | TGI [6] | TGI [7] | TGI [8] | TGI [9] | TGI [10] | TGI [11] | TGI [12] | TGI [13] | TGI [14] | TGI [15] | TGI [16] | TGI [17] | TGI [18] | TGI [19] | TGI [21] | TGI [22] | TGI [23] | TGI [24] | TGI [26] | TGI [27] | TGI [28] | TGI [55] | TGI [29] | TGI [30] | TGI [31] | TGI [32] | TGI [33] | TGI [34] | TGI [35] | TGI [37] | TGI [38] | TGI [39] | TGI [56] | TGI [40] | TGI [41] | TGI [42] | TGI [43] | TGI [44] | TGI [45] | TGI [46] | TGI [47] | TGI [57] | TGI [48] | TGI [49] | TGI [50] | TGI [51] | TGI [52] | TGI [53] | TGI [54]
inactive: GI50 [1] > 100 µM | GI50 [2] 0.476 µM | GI50 [3] > 100 µM | GI50 [4] > 100 µM | GI50 [6] 0.601 µM | GI50 [7] > 100 µM | GI50 [8] > 100 µM | GI50 [9] > 100 µM | GI50 [10] > 100 µM | GI50 [11] > 100 µM | GI50 [12] 1.61 µM | GI50 [13] > 100 µM | GI50 [14] > 100 µM | GI50 [15] > 100 µM | GI50 [16] > 100 µM | GI50 [17] > 100 µM | GI50 [18] > 100 µM | GI50 [19] 0.866 µM | GI50 [21] > 100 µM | GI50 [22] 0.958 µM | GI50 [23] > 100 µM | GI50 [24] > 100 µM | GI50 [26] 61.2 µM | GI50 [27] > 100 µM | GI50 [28] > 100 µM | GI50 [55] > 100 µM | GI50 [29] > 100 µM | GI50 [30] > 100 µM | GI50 [31] > 100 µM | GI50 [32] 4.64 µM | GI50 [33] > 100 µM | GI50 [34] > 100 µM | GI50 [37] > 100 µM | GI50 [39] 3.54 µM | GI50 [56] > 100 µM | GI50 [40] > 100 µM | GI50 [41] > 100 µM | GI50 [42] 3.8 µM | GI50 [43] > 100 µM | GI50 [44] > 100 µM | GI50 [45] > 100 µM | GI50 [46] > 100 µM | GI50 [47] > 100 µM | GI50 [57] > 100 µM | GI50 [48] > 100 µM | GI50 [49] > 100 µM | GI50 [50] > 100 µM | GI50 [51] > 100 µM | GI50 [52] > 100 µM | GI50 [53] > 100 µM | GI50 [54] > 100 µM
9.33 µM: TGI [20]
active: GI50 [20] 0.399 µM | GI50 [38] 0.277 µM
